Columns and labels:
[1] = molecular target: T1, Tumour suppressor p53/oncoprotein Mdm2 (Homo sapiens, UniProt Q00987); test: Inhibition of N-terminal thioredoxin-His6 tagged HDM2 (17 to 125 residues)/p53 protein-protein interaction (unknown origin) incubated for 2 hrs by TR-FRET assay
[2] = Lipophilicity, logD of the compound at pH 7 by RP-HPLC analysis; format: physicochemical; settings: buffer
[3] = Unbound clearance in dog; format: ADME, Canis lupus familiaris; settings: in vivo
[4] = Mean residence time in dog; format: ADME, Canis lupus familiaris; settings: in vivo
[5] = Unbound clearance in rat; format: ADME; settings: in vivo
[6] = Mean residence time in rat; format: ADME; settings: in vivo
[7] = Bioavailability in rat; format: ADME, organism-based; settings: in vivo
HCT-116 = test: cells; settings: Homo sapiens, HCT-116, 72 h
[8] = molecular target: T1, Tumour suppressor p53/oncoprotein Mdm2; test: Inhibition of HDM2/p53 interaction in human HCT-116 cells expressing p53RE/Bla incubated for 16 hrs by beta-lactamase reporter gene assay; format: cell-based
[9] = Selectivity index, ratio of IC50 for inhibition of HDM2/p53 interaction in human HCT-116 cells expressing p53/Bla to IC50 for inhibition of N-terminal thioredoxin-His6 tagged HDM2 (17 to 125 residues)/p53 protein-protein interaction (unknown origin); format: cell-based
[10] = Bioavailability in dog; format: ADME, organism-based, Canis lupus familiaris; settings: in vivo

T1 sequence (P04637 whole entry, the tested form may be a part): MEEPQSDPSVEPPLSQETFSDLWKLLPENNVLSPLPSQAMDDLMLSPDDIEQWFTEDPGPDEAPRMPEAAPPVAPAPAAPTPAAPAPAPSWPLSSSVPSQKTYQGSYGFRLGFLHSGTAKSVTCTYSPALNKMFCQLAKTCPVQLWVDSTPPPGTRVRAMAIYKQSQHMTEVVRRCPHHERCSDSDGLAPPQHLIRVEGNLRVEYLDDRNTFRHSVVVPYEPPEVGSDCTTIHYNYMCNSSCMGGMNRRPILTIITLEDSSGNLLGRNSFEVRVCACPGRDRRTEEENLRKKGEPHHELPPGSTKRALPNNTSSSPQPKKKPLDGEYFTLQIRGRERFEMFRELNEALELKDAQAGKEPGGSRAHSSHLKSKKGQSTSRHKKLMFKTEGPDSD
T1 sequence (Q00987 whole entry, the tested form may be a part): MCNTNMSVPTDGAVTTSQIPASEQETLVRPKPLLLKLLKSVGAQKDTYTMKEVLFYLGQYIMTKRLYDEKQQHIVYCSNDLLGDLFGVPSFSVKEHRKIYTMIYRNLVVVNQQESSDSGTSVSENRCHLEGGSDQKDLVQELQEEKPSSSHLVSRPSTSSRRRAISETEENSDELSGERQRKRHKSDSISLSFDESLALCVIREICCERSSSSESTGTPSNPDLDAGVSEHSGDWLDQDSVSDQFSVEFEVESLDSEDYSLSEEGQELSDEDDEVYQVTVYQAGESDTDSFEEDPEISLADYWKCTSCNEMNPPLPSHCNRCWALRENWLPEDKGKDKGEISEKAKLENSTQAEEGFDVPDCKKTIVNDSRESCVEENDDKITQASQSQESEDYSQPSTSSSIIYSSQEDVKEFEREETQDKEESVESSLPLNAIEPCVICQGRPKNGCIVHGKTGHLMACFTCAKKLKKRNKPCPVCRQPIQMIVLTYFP

Q: With `CC(C)c1ccnc(-c2nc3nc(C(=O)O)nc(N[C@H](C)C4CCC4)c3n2Cc2ccc(C(F)(F)F)cc2)c1` as the compound, how does the IC50 [1] read?
A: 4 nM

Q: And the logD [2]?
A: 2.66

Q: With `C[C@H]1CC[C@H](Cn2c(N3CCC[C@H]3C(F)(F)F)nc3cc(-c4noc(=O)[nH]4)nc(-c4cncc(Cl)c4)c32)CC1` as the compound, how does the logD [2] read?
A: 2.85

Q: What about the CL free [3] of the same compound?
A: 1500 mL/min/kg

Q: And the MRT [4]?
A: 2.5 h

Q: What about the CL free [5] of the same compound?
A: 11233 mL/min/kg

Q: And the MRT [6]?
A: 0.35 h

Q: And the bioavailability [7]?
A: 11%

Q: And the IC50 (HCT-116)?
A: 99 nM

Q: Which results are given for `C[C@@H](Nc1nc(C(=O)O)nc2nc(N3CCOC[C@H]3c3ccccc3)n(C[C@H]3CC[C@H](C)CC3)c12)C1CCC1`?
A: IC50 [8]: 1100 nM; Ratio IC50 [9]: 5500

Q: Which results are given for `C[C@@H](Nc1nc(C(=O)O)nc2nc(N[C@@H](CO)c3ccccc3)n(Cc3ccc(C(F)(F)F)cc3)c12)C1CCC1`?
A: IC50 [1]: 1.5 nM; logD [2]: 1.94

Q: Which logD [2] does the source give for `CCO[C@@H](c1nc2cc(-c3noc(=O)[nH]3)nc(-c3cncc(Cl)c3)c2n1[C@H](C)[C@H]1CC[C@H](C)CC1)C1CC1` here?
A: 2.75

Q: And the CL free [3]?
A: 323 mL/min/kg

Q: What about the MRT [4] of the same compound?
A: 3.1 h

Q: What about the bioavailability [10] of the same compound?
A: 93%

Q: What about the CL free [5] of the same compound?
A: 2060 mL/min/kg

Q: And the MRT [6]?
A: 0.5 h

Q: And the bioavailability [7]?
A: 54%

Q: And the IC50 (HCT-116)?
A: 31 nM

Q: What does the source list for `C[C@H]1CC[C@H](Cn2c(N3CCOC[C@H]3c3ccccc3)nc3nc(-c4noc(=O)[nH]4)nc(-c4ccccc4)c32)CC1`?
A: logD [2]: 2.72; IC50 [8]: 632 nM; IC50 (HCT-116): 6370 nM

Q: Which logD [2] does the source give for `COCC(c1ccccc1)c1nc2cc(-c3noc(=O)[nH]3)nc(-c3cncc(Cl)c3)c2n1C[C@H]1CC[C@H](C)CC1` (mixture of isomers) here?
A: 2.62

Q: What about the IC50 (HCT-116) of the same compound?
A: 451 nM

Q: Which logD [2] does the source give for `CC(C)c1ccnc(-c2nc3nc(C(=O)O)nc(N[C@H](C)C4CCC4)c3n2Cc2ccc(C(F)(F)F)s2)c1` here?
A: 2.67

Q: What does the source list for `C[C@H]1CC[C@H](Cn2c(N3CCOC[C@H]3c3ccccc3)nc3nc(-c4noc(=O)[nH]4)nc(-c4cccc(Cl)c4)c32)CC1`?
A: IC50 [1]: 1.3 nM; logD [2]: 3.15; IC50 [8]: 113 nM; IC50 (HCT-116): 723 nM

Q: What does the source list for `CC(C)c1ccnc(-c2nc3nc(C(=O)O)nc(N[C@H](C)C4CCC4)c3n2Cc2ccc(OC(F)(F)F)cc2)c1`?
A: IC50 [1]: 12 nM; logD [2]: 2.81

Q: For `C[C@@H](Nc1nc(-c2nnc[nH]2)nc2nc(N3CCOC[C@H]3c3ccccc3)n(C[C@H]3CC[C@H](C)CC3)c12)C1CCC1`, which IC50 [1] is on record?
A: 11 nM

Q: What about the IC50 [8] of the same compound?
A: 724 nM

Q: And the Ratio IC50 [9]?
A: 66

Q: Which logD [2] does the source give for `CC(C)c1ccnc(-c2nc3nc(C(=O)O)nc(N[C@H](C)C4CCC4)c3n2Cc2ccc(OC(F)(F)F)c(F)c2)c1` here?
A: 2.84

Q: Which results are given for `Cc1cccc(-c2nc3nc(C(=O)O)nc(NCC4CC4)c3n2CC2CCCCC2)c1`?
A: IC50 [1]: 8400 nM; logD [2]: 3.7

Q: What does the source list for `Cc1cncc(-c2nc(-c3noc(=O)[nH]3)nc3nc(N4CCOC[C@H]4c4ccccc4)n(C[C@H]4CC[C@H](C)CC4)c23)c1`?
A: logD [2]: 2.17; IC50 [8]: 3670 nM; IC50 (HCT-116): 7800 nM

Q: Which logD [2] does the source give for `C[C@@H](Nc1nc(C(=O)O)nc2nc(NC3CCCCC3)n(Cc3ccc(C(F)(F)F)cc3)c12)C1CCC1` here?
A: 2.62

Q: For `C[C@H]1CC[C@H](Cn2c(N3CCC[C@H]3CF)nc3cc(-c4noc(=O)[nH]4)nc(-c4cncc(Cl)c4)c32)CC1`, which logD [2] is on record?
A: 2.42

Q: And the CL free [3]?
A: 920 mL/min/kg

Q: And the MRT [4]?
A: 1.5 h

Q: And the bioavailability [10]?
A: 37%

Q: What about the CL free [5] of the same compound?
A: 3244 mL/min/kg

Q: What about the MRT [6] of the same compound?
A: 0.25 h

Q: And the bioavailability [7]?
A: 7%

Q: And the IC50 (HCT-116)?
A: 169 nM

Q: With `CCOC(c1nc2cc(-c3noc(=O)[nH]3)nc(-c3cncc(Cl)c3)c2n1C[C@H]1CC[C@H](C)CC1)C1CC1` (stereo partly drawn) as the compound, how does the logD [2] read?
A: 2.34

Q: And the CL free [3]?
A: 206 mL/min/kg

Q: What about the MRT [4] of the same compound?
A: 1.6 h

Q: And the IC50 (HCT-116)?
A: 466 nM

Q: For `C[C@H]1CC[C@H](Cn2c(N3CCOC[C@H]3c3ccccc3)nc3cc(-c4noc(=O)[nH]4)nc(-c4cncc(Cl)c4)c32)CC1`, which IC50 [1] is on record?
A: 0.61 nM

Q: What about the logD [2] of the same compound?
A: 2.69

Q: What about the IC50 [8] of the same compound?
A: 31 nM

Q: What about the CL free [3] of the same compound?
A: 1607 mL/min/kg

Q: And the MRT [4]?
A: 1.7 h

Q: What about the bioavailability [10] of the same compound?
A: 39%

Q: And the CL free [5]?
A: 20745 mL/min/kg

Q: And the MRT [6]?
A: 0.4 h

Q: What about the bioavailability [7] of the same compound?
A: 5%

Q: What about the IC50 (HCT-116) of the same compound?
A: 93 nM

Q: With `CC(C)c1ccnc(-c2nc3nc(C(=O)O)nc(N[C@H](C)C4CCC4)c3n2C[C@H]2CC[C@@H](C)CC2)c1` as the compound, how does the IC50 [1] read?
A: 348 nM

Q: And the logD [2]?
A: 2.7

Q: Which logD [2] does the source give for `C[C@@H](Nc1nc(C(=O)O)nc2nc(-c3ccc4sccc4c3)n(Cc3ccc(Cl)cc3)c12)C1CC1` here?
A: 2.2

Q: Which results are given for `C[C@H]1CC[C@H](Cn2c(N3CCOC[C@H]3c3ccccc3)nc3nc(-c4noc(=O)[nH]4)nc(-c4cncc(Cl)c4)c32)CC1`?
A: logD [2]: 2.55; IC50 [8]: 401 nM; IC50 (HCT-116): 1970 nM

Q: Which logD [2] does the source give for `C[C@@H]1COC[C@@H](C)N1c1nc2cc(-c3noc(=O)[nH]3)nc(-c3cncc(Cl)c3)c2n1C[C@H]1CC[C@H](C)CC1` here?
A: 2.32

Q: What about the CL free [3] of the same compound?
A: 131 mL/min/kg

Q: What about the MRT [4] of the same compound?
A: 3.9 h

Q: What about the CL free [5] of the same compound?
A: 2166 mL/min/kg

Q: What about the MRT [6] of the same compound?
A: 0.3 h

Q: And the bioavailability [7]?
A: 9%

Q: And the IC50 (HCT-116)?
A: 248 nM

Q: Which results are given for `C[C@@H](Nc1nc(C(=O)O)nc2nc(N3CCOC[C@H]3c3ccccc3)n(Cc3ccc(C(F)(F)F)cc3)c12)C1CCC1`?
A: IC50 [1]: 1.8 nM; logD [2]: 2.32

Q: With `C[C@@H](Nc1nc(C(=O)O)nc2nc(N3CCOC[C@@H]3c3ccccc3)n(Cc3ccc(C(F)(F)F)cc3)c12)C1CCC1` as the compound, how does the logD [2] read?
A: 2.34

Q: For `CC(C)c1ccnc(-c2nc3nc(C(=O)O)nc(N[C@H](C)C4CCC4)c3n2C[C@H]2CC[C@H](C)CC2)c1` (mixture of isomers), which IC50 [1] is on record?
A: 2.2 nM

Q: What about the logD [2] of the same compound?
A: 2.94

Q: For `COCC(C)c1nc2cc(-c3noc(=O)[nH]3)nc(-c3cncc(Cl)c3)c2n1C[C@H]1CC[C@H](C)CC1` (stereo partly drawn), which logD [2] is on record?
A: 2.03

Q: What about the CL free [3] of the same compound?
A: 171 mL/min/kg

Q: And the MRT [4]?
A: 1.2 h

Q: What about the IC50 (HCT-116) of the same compound?
A: 1110 nM

Q: What does the source list for `C[C@@H](Nc1nc(-c2n[nH]c(=O)n2C)nc2nc(N3CCOC[C@H]3c3ccccc3)n(C[C@H]3CC[C@H](C)CC3)c12)C1CCC1`?
A: IC50 [1]: 15 nM; IC50 [8]: 990 nM; Ratio IC50 [9]: 66

Q: For `COCC(C)c1nc2cc(-c3noc(=O)[nH]3)nc(-c3cncc(Cl)c3)c2n1[C@H](C)[C@H]1CC[C@H](C)CC1` (stereo partly drawn), which logD [2] is on record?
A: 2.59

Q: And the CL free [3]?
A: 59 mL/min/kg

Q: What about the MRT [4] of the same compound?
A: 3.8 h

Q: What about the bioavailability [10] of the same compound?
A: 54%

Q: And the CL free [5]?
A: 1150 mL/min/kg

Q: What about the MRT [6] of the same compound?
A: 0.4 h

Q: What about the bioavailability [7] of the same compound?
A: 46%

Q: And the IC50 (HCT-116)?
A: 222 nM

Q: Which IC50 [8] does the source give for `C[C@@H](Nc1nc(CO)nc2nc(N3CCOC[C@H]3c3ccccc3)n(C[C@H]3CC[C@H](C)CC3)c12)C1CCC1` here?
A: 4100 nM

Q: And the Ratio IC50 [9]?
A: 52

Q: What does the source list for `C[C@@H](Nc1nc(-c2nc(=O)n(C)[nH]2)nc2nc(N3CCOC[C@H]3c3ccccc3)n(C[C@H]3CC[C@H](C)CC3)c12)C1CCC1`?
A: IC50 [1]: 1.5 nM; IC50 [8]: 203 nM; Ratio IC50 [9]: 135

Q: What does the source list for `C[C@@H](Nc1nc(-c2n[nH]c(=O)o2)nc2nc(N3CCOC[C@H]3c3ccccc3)n(C[C@H]3CC[C@H](C)CC3)c12)C1CCC1`?
A: IC50 [1]: 2 nM; IC50 [8]: 140 nM; Ratio IC50 [9]: 70

Q: For `CC(C)c1cccc(-c2nc3nc(C(=O)O)nc(N[C@H](C)C4CCC4)c3n2Cc2ccc(C(F)(F)F)cc2)c1`, which IC50 [1] is on record?
A: 15 nM

Q: What about the logD [2] of the same compound?
A: 2.86
